Test results taken from article PMC4901301 (Scientific Reports, 2016).
≈ marks a conversion by molar mass, not a printed value. Where two headings read alike, the source gives them in different places.

Experiments:
Type in all cases: cell-based, Mycobacterium tuberculosis
Mtb TH 12768 = assay: Resazurin (Alamar Blue) drug susceptibility testing, TH 12768
Mtb MT 182 = assay: Resazurin (Alamar Blue) drug susceptibility testing, MT 182
Mtb TC 12561 = assay: Resazurin (Alamar Blue) drug susceptibility testing, TC 12561
[1] = tested on: Mtb H37Rv thyX Tet-OFF conditional knockdown mutant

Compound | MIC (Mtb TH 12768; read-out: MIC) [µM] | MIC (Mtb MT 182; read-out: MIC) [µM] | MIC (Mtb TC 12561; read-out: MIC) [µM] | also measured
O=C1C(O)=C(Cc2ccc(-c3ccc(Cl)cc3)cc2)C(=O)c2ccccc21 [Compound 007B] | 41.7 (≈ 15.6 µg/mL) | 83.4 (≈ 31.3 µg/mL) | 83.4 (≈ 31.3 µg/mL) | –
O=C1C(O)=C(Cc2ccc(OC(F)(F)F)cc2)C(=O)c2ccccc21 [Compound 007C] | 44.9 (≈ 15.6 µg/mL) | 44.9 (≈ 15.6 µg/mL) | 44.9 (≈ 15.6 µg/mL) | –
CC(C)Oc1ccc(CC2=C(O)C(=O)c3ccccc3C2=O)cc1 [Compound 007D] | 96.9 (≈ 31.2 µg/mL) | 96.9 (≈ 31.2 µg/mL) | 96.9 (≈ 31.2 µg/mL) | –
O=C1C(O)=C(Cc2ccc(C(F)(F)F)cc2)C(=O)c2ccccc21 [Compound 007F] | 94.1 (≈ 31.3 µg/mL) | 94.1 (≈ 31.3 µg/mL) | 47.0 (≈ 15.6 µg/mL) | –
O=C1C(O)=C(Cc2ccc(Oc3ccccc3)cc2)C(=O)c2ccccc21 [Compound 007G] | 175.5 (≈ 62.5 µg/mL) | 87.8 (≈ 31.3 µg/mL) | 87.8 (≈ 31.3 µg/mL) | –
O=C1C(O)=C(Cc2ccc(Cl)cc2)C(=O)c2ccccc21 [Compound 010A] | 104.6 (≈ 31.2 µg/mL) | 104.6 (≈ 31.2 µg/mL) | 52.3 (≈ 15.6 µg/mL) | –
O=C1C(O)=C(Cc2cc(F)cc(F)c2)C(=O)c2ccccc21 [Compound 010B] | 52.1 (≈ 15.6 µg/mL) | 104.1 (≈ 31.3 µg/mL) | 104.1 (≈ 31.3 µg/mL) | –
O=C1C(O)=C(Cc2ccco2)C(=O)c2ccccc21 [Compound 010C] | 176.5 (≈ 44.9 µg/mL) | 176.5 (≈ 44.9 µg/mL) | 176.5 (≈ 44.9 µg/mL) | –
O=C1C(O)=C(Cc2cccs2)C(=O)c2ccccc21 [Compound 010D] | 231.2 (≈ 62.5 µg/mL) | 462.4 (≈ 125 µg/mL) | 57.8 (≈ 15.6 µg/mL) | –
O=C1C(O)=C(Cc2ccc(F)c(C(F)(F)F)c2)C(=O)c2ccccc21 [Compound 010E] | 22.3 (≈ 7.81 µg/mL) | 22.3 (≈ 7.81 µg/mL) | 22.3 (≈ 7.81 µg/mL) | –
O=C1C(O)=C(Cc2ccc(F)c(Cl)c2)C(=O)c2ccccc21 [Compound 010F] | 197.3 (≈ 62.5 µg/mL) | 98.7 (≈ 31.3 µg/mL) | 49.3 (≈ 15.6 µg/mL) | –
COc1cc(CC2=C(O)C(=O)c3ccccc3C2=O)ccc1O [Compound 010H] | 201.4 (≈ 62.5 µg/mL) | 100.7 (≈ 31.2 µg/mL) | 201.4 (≈ 62.5 µg/mL) | –
CCCCC1=C(O)C(=O)c2ccccc2C1=O [Compound 010I] | 135.7 (≈ 31.2 µg/mL) | 135.7 (≈ 31.2 µg/mL) | 271.4 (≈ 62.5 µg/mL) | –
COc1ccc(CC2=C(O)C(=O)c3ccccc3C2=O)cc1OC [Compound 010K] | 192.7 (≈ 62.5 µg/mL) | 385.4 (≈ 125 µg/mL) | 192.7 (≈ 62.5 µg/mL) | –
CCOC(=O)C1=C(c2ccc(C)cc2)C(=O)c2ccccc2C1=O [Compound B6, ethyl 3-(4-methylphenyl)-1,4-dioxonaphtalene-2-carboxylate] | – | – | – | MIC90 shift (increase in potency) upon ThyX depletion [1]: no shift
CS(=O)(=O)N1CCN(C2=C(Cl)C(=O)c3ccccc3C2=O)CC1 [Compound E1, 2-chloro-3-(4-methanesulfonylpiperazin-1-yl)-1,4-dihydronaphthalene-1,4-dione] | – | – | – | MIC90 shift (increase in potency) upon ThyX depletion [1]: ≥ 4 fold
NNC(=O)c1ccncc1 [INH, isoniazid, reference compound] | – | – | – | MIC (Mtb TH 12768; Mycobacterium tuberculosis, TH12768, read-out: MIC): 3.64 µM (≈ 0.499 µg/mL); MIC (Mtb MT 182; Mycobacterium tuberculosis, MT182, read-out: MIC): < 0.91 µM; MIC (Mtb TC 12561; Mycobacterium tuberculosis, TC12561, read-out: MIC): 14.6 µM (≈ 2 µg/mL)
COC1=C(OC)C(=O)C(CCCCCCCCCCO)=C(C)C1=O [Idebenone, idebenone, reference compound] | – | – | – | Growth inhibition [1]: ~ 90%
CO[C@H]1/C=C/O[C@@]2(C)Oc3c(C)c(O)c4c(O)c(c(/C=N/N5CCN(C)CC5)c(O)c4c3C2=O)NC(=O)/C(C)=C\C=C\[C@H](C)[C@H](O)[C@@H](C)[C@@H](O)[C@@H](C)[C@H](OC(C)=O)[C@@H]1C [RMP, rifampicin, reference compound] | – | – | – | MIC (Mtb TH 12768; Mycobacterium tuberculosis, TH12768): < 0.3 µM; MIC (Mtb MT 182; Mycobacterium tuberculosis, MT182): 1.21 µM (≈ 0.996 µg/mL); MIC (Mtb TC 12561; Mycobacterium tuberculosis, TC12561): 4.86 µM (≈ 4 µg/mL)
